Columns and labels:
Conditions in all cases: 48 h
NOMO1 [1] = experiment: cell viability relative to DMSO control; higher = less cytotoxic
Method in brief: (§1)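 NOMO1, SEM and P12-Ichikawa leukemia cells spent at least four passages adapting to each medium before use. They were seeded at 500 cells/well (NOMO1, SEM) or 1000 cells/well (P12-Ichikawa) in 5 μl in 1536-well plates and pin-dosed with library compounds in DMSO at 11 threefold steps from 47 μM down to 0.79 nM. After 48 h at 37°C, CellTiter-Glo One luminescence was read. Viability is reported as a percentage of the DMSO wells on each plate, with cell-free wells as background.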

P12-Ichikawa [2] = experiment: as above
Method in brief: as §1

SEM cells [3] = experiment: as above
Method in brief: as §1

NOMO1 [4] = experiment: AUC of viability dose-response curve (% viability x log10 dose units); higher = less sensitive
Method in brief: (§2)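 Library compounds in DMSO were applied for 48 h at 37°C at 11 threefold doses (47 μM to 0.79 nM) to medium-adapted leukemia cells in 1536-well plates holding 500 or 1000 cells/well. Luminescence from CellTiter-Glo One was normalised plate by plate against DMSO and cell-free wells. Area under the curve came from trapezoidal integration of a log-logistic fit, after scaling curves that rose above full viability and discarding those that failed quality control. The fit had four parameters and used log10 doses.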

P12-Ichikawa [5] = experiment: as above
Method in brief: as §2

SEM cells [6] = experiment: as above
Method in brief: as §2

COc1ccc([S+](=O)([O-])N(C(C)=O)c2ccccc2/C=C/c2cc[n+]([O-])cc2)cc1
cell viability [%]
Conditions	NOMO1 [1]	P12-Ichikawa [2]	SEM cells [3]
HPLM + 10% dialyzed FBS, 0.000781 µM	–	119	124
HPLM + 10% dialyzed FBS, 0.00234 µM	–	125	122
HPLM + 10% dialyzed FBS, 0.00702 µM	–	118	133
HPLM + 10% dialyzed FBS, 0.0211 µM	–	121	141
HPLM + 10% dialyzed FBS, 0.0632 µM	–	125	125
HPLM + 10% dialyzed FBS, 0.19 µM	–	118	125
HPLM + 10% dialyzed FBS, 0.569 µM	–	116	124
HPLM + 10% dialyzed FBS, 1.71 µM	–	64.9	55.4
HPLM + 10% dialyzed FBS, 5.12 µM	–	24.5	26.1
HPLM + 10% dialyzed FBS, 15.4 µM	–	25.1	26.5
HPLM + 10% dialyzed FBS, 46.1 µM	–	10.5	23
RPMI 5 mM glucose + 10% FBS, 0.000781 µM	116	–	122
RPMI 5 mM glucose + 10% FBS, 0.00234 µM	106	–	131
RPMI 5 mM glucose + 10% FBS, 0.00702 µM	129	–	115
RPMI 5 mM glucose + 10% FBS, 0.0211 µM	114	–	126
RPMI 5 mM glucose + 10% FBS, 0.0632 µM	105	–	97.1
RPMI 5 mM glucose + 10% FBS, 0.19 µM	112	–	103
RPMI 5 mM glucose + 10% FBS, 0.569 µM	130	–	111
RPMI 5 mM glucose + 10% FBS, 1.71 µM	44.5	–	39.1
RPMI 5 mM glucose + 10% FBS, 5.12 µM	21	–	20.3
RPMI 5 mM glucose + 10% FBS, 15.4 µM	24.4	–	18.4
RPMI 5 mM glucose + 10% FBS, 46.1 µM	22.6	–	13.4
RPMI 5 mM glucose + 10% dialyzed FBS, 0.000781 µM	108	–	–
RPMI 5 mM glucose + 10% dialyzed FBS, 0.00234 µM	111	–	–
RPMI 5 mM glucose + 10% dialyzed FBS, 0.00702 µM	116	–	–
RPMI 5 mM glucose + 10% dialyzed FBS, 0.0211 µM	126	–	–
RPMI 5 mM glucose + 10% dialyzed FBS, 0.0632 µM	115	–	–
RPMI 5 mM glucose + 10% dialyzed FBS, 0.19 µM	121	–	–
RPMI 5 mM glucose + 10% dialyzed FBS, 0.569 µM	122	–	–
RPMI 5 mM glucose + 10% dialyzed FBS, 1.71 µM	46.4	–	–
RPMI 5 mM glucose + 10% dialyzed FBS, 5.12 µM	25.3	–	–
RPMI 5 mM glucose + 10% dialyzed FBS, 15.4 µM	26.8	–	–
RPMI 5 mM glucose + 10% dialyzed FBS, 46.1 µM	28.4	–	–

AUC of viability dose-response curve
Conditions	NOMO1 [4]	P12-Ichikawa [5]	SEM cells [6]
HPLM + 10% dialyzed FBS	351	353	352
RPMI 5 mM glucose + 10% FBS	352	345	342
RPMI 5 mM glucose + 10% dialyzed FBS	356	370	351

O=C(Nc1cc(Cl)cc2c1[nH]c1cnccc12)c1cccnc1
cell viability [%]
Conditions	NOMO1 [1]	P12-Ichikawa [2]	SEM cells [3]
HPLM + 10% dialyzed FBS, 0.000781 µM	–	116	121
HPLM + 10% dialyzed FBS, 0.00234 µM	–	121	121
HPLM + 10% dialyzed FBS, 0.00702 µM	–	123	116
HPLM + 10% dialyzed FBS, 0.0211 µM	–	121	134
HPLM + 10% dialyzed FBS, 0.0632 µM	–	121	124
HPLM + 10% dialyzed FBS, 0.19 µM	–	122	122
HPLM + 10% dialyzed FBS, 0.569 µM	–	127	118
HPLM + 10% dialyzed FBS, 1.71 µM	–	115	141
HPLM + 10% dialyzed FBS, 5.12 µM	–	121	133
HPLM + 10% dialyzed FBS, 15.4 µM	–	113	127
HPLM + 10% dialyzed FBS, 46.1 µM	–	106	113
RPMI 5 mM glucose + 10% FBS, 0.000781 µM	–	124	109
RPMI 5 mM glucose + 10% FBS, 0.00234 µM	–	118	108
RPMI 5 mM glucose + 10% FBS, 0.00702 µM	–	118	96.3
RPMI 5 mM glucose + 10% FBS, 0.0211 µM	–	129	117
RPMI 5 mM glucose + 10% FBS, 0.0632 µM	–	119	126
RPMI 5 mM glucose + 10% FBS, 0.19 µM	–	116	125
RPMI 5 mM glucose + 10% FBS, 0.569 µM	–	117	128
RPMI 5 mM glucose + 10% FBS, 1.71 µM	–	118	129
RPMI 5 mM glucose + 10% FBS, 5.12 µM	–	114	138
RPMI 5 mM glucose + 10% FBS, 15.4 µM	–	114	121
RPMI 5 mM glucose + 10% FBS, 46.1 µM	–	109	124
RPMI 5 mM glucose + 10% dialyzed FBS, 0.000781 µM	118	–	113
RPMI 5 mM glucose + 10% dialyzed FBS, 0.00234 µM	114	–	107
RPMI 5 mM glucose + 10% dialyzed FBS, 0.00702 µM	124	–	109
RPMI 5 mM glucose + 10% dialyzed FBS, 0.0211 µM	110	–	108
RPMI 5 mM glucose + 10% dialyzed FBS, 0.0632 µM	110	–	100
RPMI 5 mM glucose + 10% dialyzed FBS, 0.19 µM	124	–	98.5
RPMI 5 mM glucose + 10% dialyzed FBS, 0.569 µM	131	–	116
RPMI 5 mM glucose + 10% dialyzed FBS, 1.71 µM	123	–	125
RPMI 5 mM glucose + 10% dialyzed FBS, 5.12 µM	117	–	123
RPMI 5 mM glucose + 10% dialyzed FBS, 15.4 µM	109	–	128
RPMI 5 mM glucose + 10% dialyzed FBS, 46.1 µM	109	–	117

AUC of viability dose-response curve
Conditions	NOMO1 [4]	P12-Ichikawa [5]	SEM cells [6]
HPLM + 10% dialyzed FBS	467	471	468
RPMI 5 mM glucose + 10% FBS	477	461	452
RPMI 5 mM glucose + 10% dialyzed FBS	471	457	437

O=c1[nH]c2ccccc2n1CCCN1CCC(n2c(=O)[nH]c3cc(Cl)ccc32)CC1
NOMO1 [1], RPMI 5 mM glucose + 10% FBS
Conditions	cell viability [%]
0.000781 µM	124
0.00234 µM	146
0.00702 µM	123
0.0211 µM	134
0.0632 µM	151
0.19 µM	149
0.569 µM	137
1.71 µM	116
5.12 µM	131
15.4 µM	146
46.1 µM	122

AUC of viability dose-response curve
Conditions	NOMO1 [4]	P12-Ichikawa [5]	SEM cells [6]
HPLM + 10% dialyzed FBS	459	467	448
RPMI 5 mM glucose + 10% FBS	466	460	473
RPMI 5 mM glucose + 10% dialyzed FBS	472	470	475

CCN1\C=C(\C(O)=O)C(=O)C2=C1C=C(N3CCNCC3)C(=C2)F
cell viability [%], SEM cells [3]
Conditions	HPLM + 10% dialyzed FBS	RPMI 5 mM glucose + 10% dialyzed FBS
0.000781 µM	95	117
0.00234 µM	130	124
0.00702 µM	125	125
0.0211 µM	136	129
0.0632 µM	116	108
0.19 µM	59.4	48.3
0.569 µM	112	114
1.71 µM	77.9	104
5.12 µM	90.6	98
15.4 µM	59.8	101
46.1 µM	78.8	77.8

AUC of viability dose-response curve
Conditions	NOMO1 [4]	P12-Ichikawa [5]	SEM cells [6]
HPLM + 10% dialyzed FBS	430	456	385
RPMI 5 mM glucose + 10% FBS	465	433	392
RPMI 5 mM glucose + 10% dialyzed FBS	455	449	404

— the supplement of paper PMC11451515
